Measured values reported in ChEMBL document CHEMBL1201862, “PubChem BioAssay data set” (2004).
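Test compounds were applied to cells in 96-well plates for 48 hours at 5 doses. GI50 is the concentration that inhibits growth by half.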 Calls of active or inactive are those of the source. Rule as the data show it: active = GI50 up to about 1.1 µM and inactive = higher.

Experiments:
Assay in all cases: NCI anticancer screen, dose series, 48 h
786-0 = tested on: 786-0
A549 = tested on: A549
T47D = tested on: T47D
SF-295 = tested on: SF-295
NCI/ADR-RES = tested on: NCI/ADR-RES
HCC 2998 = tested on: HCC 2998
HT-29 = tested on: HT-29
CCRF-CEM = tested on: CCRF-CEM
NCI-H23 = tested on: NCI-H23
SK-MEL-28 = tested on: SK-MEL-28
SF-268 = tested on: SF-268
MDA-N = tested on: MDA-N
SK-MEL-2 = tested on: SK-MEL-2
RPMI-8226 = tested on: RPMI-8226
NCI-H460 = tested on: NCI-H460
CAKI-1 = tested on: CAKI-1
HOP-62 = tested on: HOP-62
U-251 = tested on: U-251
SN12C = tested on: SN12C
MDA-MB-435 = tested on: MDA-MB-435
COLO 205 = tested on: COLO 205
RXF 393 = tested on: RXF 393
DU-145 = tested on: DU-145
MCF7 = tested on: MCF7
BT-549 = tested on: BT-549
MDA-MB-231 = tested on: MDA-MB-231
IGROV-1 = tested on: IGROV-1
SR = tested on: SR
A498 = tested on: A498
SW-620 = tested on: SW-620
Malme-3M = tested on: Malme-3M
M14 = tested on: M14
HCT-15 = tested on: HCT-15
HL-60 = tested on: HL-60
OVCAR-8 = tested on: OVCAR-8
OVCAR-5 = tested on: OVCAR-5
SNB-75 = tested on: SNB-75
HOP-92 = tested on: HOP-92
MOLT-4 = tested on: MOLT-4
NCI-H522 = tested on: NCI-H522
SNB-19 = tested on: SNB-19
OVCAR-4 = tested on: OVCAR-4
EKVX = tested on: EKVX
SK-OV-3 = tested on: SK-OV-3
PC-3 = tested on: PC-3
KM12 = tested on: KM12
K562 = tested on: K562
UO-31 = tested on: UO-31
UACC-257 = tested on: UACC-257
ACHN = tested on: ACHN
OVCAR-3 = tested on: OVCAR-3
UACC-62 = tested on: UACC-62
HCT-116 = tested on: HCT-116
SF-539 = tested on: SF-539
NCI-H226 = tested on: NCI-H226
Hs-578T = tested on: Hs-578T
LOX IMVI = tested on: LOX IMVI
TK-10 = tested on: TK-10

CCCCc1ccc(N2C(=O)c3cccnc3S2(=O)=O)cc1
GI50 (786-0): > 100 µM (inactive)
GI50 (A549): > 100 µM (inactive)
GI50 (T47D): > 100 µM (inactive)
GI50 (SF-295): > 100 µM (inactive)
GI50 (NCI/ADR-RES): > 100 µM (inactive)
GI50 (HCC 2998): > 100 µM (inactive)
GI50 (HT-29): > 100 µM (inactive)
GI50 (CCRF-CEM): > 100 µM (inactive)
GI50 (NCI-H23): > 100 µM (inactive)
GI50 (SK-MEL-28): > 100 µM (inactive)
GI50 (SF-268): > 100 µM (inactive)
GI50 (MDA-N): > 100 µM (inactive)
GI50 (SK-MEL-2): > 100 µM (inactive)
GI50 (RPMI-8226): > 100 µM (inactive)
GI50 (NCI-H460): > 100 µM (inactive)
GI50 (CAKI-1): > 100 µM (inactive)
GI50 (HOP-62): > 100 µM (inactive)
GI50 (U-251): > 100 µM (inactive)
GI50 (SN12C): > 100 µM (inactive)
GI50 (MDA-MB-435): > 100 µM (inactive)
GI50 (COLO 205): > 100 µM (inactive)
GI50 (RXF 393): > 100 µM (inactive)
GI50 (DU-145): > 100 µM (inactive)
GI50 (MCF7): > 100 µM (inactive)
GI50 (BT-549): > 100 µM (inactive)
GI50 (MDA-MB-231): > 100 µM (inactive)
GI50 (IGROV-1): > 100 µM (inactive)
GI50 (SR): > 100 µM (inactive)
GI50 (A498): > 100 µM (inactive)
GI50 (SW-620): > 100 µM (inactive)
GI50 (Malme-3M): > 100 µM (inactive)
GI50 (M14): > 100 µM (inactive)
GI50 (HCT-15): > 100 µM
GI50 (HL-60): > 100 µM (inactive)
GI50 (OVCAR-8): > 100 µM (inactive)
GI50 (OVCAR-5): > 100 µM (inactive)
GI50 (SNB-75): > 100 µM (inactive)
GI50 (HOP-92): > 100 µM (inactive)
GI50 (MOLT-4): > 100 µM (inactive)
GI50 (NCI-H522): > 100 µM (inactive)
GI50 (SNB-19): > 100 µM (inactive)
GI50 (OVCAR-4): > 100 µM (inactive)
GI50 (EKVX): > 100 µM (inactive)
GI50 (SK-OV-3): > 100 µM (inactive)
GI50 (PC-3): > 100 µM (inactive)
GI50 (KM12): > 100 µM (inactive)
GI50 (K562): > 100 µM (inactive)
GI50 (UO-31): > 100 µM (inactive)
GI50 (UACC-257): > 100 µM (inactive)
GI50 (ACHN): > 100 µM (inactive)
GI50 (OVCAR-3): > 100 µM (inactive)
GI50 (UACC-62): > 100 µM (inactive)
GI50 (HCT-116): > 100 µM (inactive)
GI50 (SF-539): > 100 µM (inactive)
GI50 (NCI-H226): > 100 µM (inactive)

O=C1/C(=C/c2ccc(Cl)cc2)CCCc2ccccc21
GI50 (786-0): 17.3 µM (inactive)
GI50 (A549): 21.3 µM (inactive)
GI50 (SF-295): 16.9 µM (inactive)
GI50 (NCI/ADR-RES): 15.1 µM (inactive)
GI50 (HCC 2998): 22.2 µM (inactive)
GI50 (HT-29): 4.67 µM (inactive)
GI50 (CCRF-CEM): 12.5 µM (inactive)
GI50 (NCI-H23): 23.7 µM (inactive)
GI50 (SK-MEL-28): 16.6 µM (inactive)
GI50 (Hs-578T): 11.7 µM (inactive)
GI50 (SF-268): 13.9 µM (inactive)
GI50 (LOX IMVI): 17.3 µM (inactive)
GI50 (MDA-N): 17.1 µM (inactive)
GI50 (SK-MEL-2): 14.7 µM (inactive)
GI50 (RPMI-8226): 12.8 µM (inactive)
GI50 (NCI-H460): 17.7 µM (inactive)
GI50 (CAKI-1): 39.4 µM (inactive)
GI50 (HOP-62): 24.5 µM (inactive)
GI50 (U-251): 14.2 µM (inactive)
GI50 (SN12C): 18.7 µM (inactive)
GI50 (MDA-MB-435): 17.1 µM (inactive)
GI50 (COLO 205): 20.6 µM (inactive)
GI50 (DU-145): 23.1 µM (inactive)
GI50 (MCF7): 17.2 µM (inactive)
GI50 (BT-549): 20.3 µM (inactive)
GI50 (MDA-MB-231): 19.6 µM (inactive)
GI50 (IGROV-1): 18.2 µM (inactive)
GI50 (SR): 13.6 µM (inactive)
GI50 (SW-620): 15.4 µM (inactive)
GI50 (Malme-3M): 13.6 µM (inactive)
GI50 (M14): 15.6 µM (inactive)
GI50 (HCT-15): 14 µM
GI50 (HL-60): 13.7 µM (inactive)
GI50 (OVCAR-8): 17.2 µM (inactive)
GI50 (OVCAR-5): 16.9 µM (inactive)
GI50 (SNB-75): 30.3 µM (inactive)
GI50 (HOP-92): 21.5 µM (inactive)
GI50 (MOLT-4): 14.8 µM (inactive)
GI50 (NCI-H522): 11.7 µM (inactive)
GI50 (SNB-19): 18.4 µM (inactive)
GI50 (OVCAR-4): 14.9 µM (inactive)
GI50 (EKVX): 14.8 µM (inactive)
GI50 (SK-OV-3): 43.1 µM (inactive)
GI50 (PC-3): 19.6 µM (inactive)
GI50 (KM12): 15.2 µM (inactive)
GI50 (K562): 3.24 µM (inactive)
GI50 (UO-31): 18.3 µM (inactive)
GI50 (UACC-257): 28.8 µM (inactive)
GI50 (ACHN): 16.9 µM (inactive)
GI50 (OVCAR-3): 18.9 µM (inactive)
GI50 (UACC-62): 14.5 µM (inactive)
GI50 (TK-10): 21.6 µM (inactive)
GI50 (HCT-116): 13.6 µM (inactive)
GI50 (SF-539): 17.9 µM (inactive)
GI50 (NCI-H226): 16.4 µM (inactive)
